PubChem BioAssay (NCI)
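Briefly, cells in 96-well plates were exposed to five compound concentrations for 48 h, and endpoints were estimated by linear interpolation. The concentration for full growth arrest is given as TGI.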

What was measured:
Experiment in all cases: DTP human tumour cell line panel, 48 h
OVCAR-3 ovarian = tested on: OVCAR-3 ovarian
SNB-75 CNS = tested on: SNB-75 CNS
KM20L2 colon = tested on: KM20L2 colon
COLO 205 colon = tested on: COLO 205 colon
CCRF-CEM leukemia = tested on: CCRF-CEM leukemia
HCT-15 colon = tested on: HCT-15 colon
SK-MEL-2 melanoma = tested on: SK-MEL-2 melanoma
SNB-19 CNS = tested on: SNB-19 CNS
HL-60(TB) leukemia = tested on: HL-60(TB) leukemia
786-0 renal = tested on: 786-0 renal
LXFL 529 NSCLC = tested on: LXFL 529 NSCLC
HOP-62 NSCLC = tested on: HOP-62 NSCLC
A498 renal = tested on: A498 renal
SK-MEL-5 melanoma = tested on: SK-MEL-5 melanoma
K-562 leukemia = tested on: K-562 leukemia
SF-295 CNS = tested on: SF-295 CNS
SF-539 CNS = tested on: SF-539 CNS
XF 498 CNS = tested on: XF 498 CNS
LOX IMVI melanoma = tested on: LOX IMVI melanoma
HT29 colon = tested on: HT29 colon
M14 melanoma = tested on: M14 melanoma
DLD-1 colon = tested on: DLD-1 colon
DMS 273 small cell lung = tested on: DMS 273 small cell lung
UACC-62 melanoma = tested on: UACC-62 melanoma
IGROV1 ovarian = tested on: IGROV1 ovarian
HCT-116 colon = tested on: HCT-116 colon
NCI-H460 lung = tested on: NCI-H460 lung
SF-268 CNS = tested on: SF-268 CNS
UO-31 renal = tested on: UO-31 renal
U251 CNS = tested on: U251 CNS
NCI-H23 lung = tested on: NCI-H23 lung
OVCAR-4 ovarian = tested on: OVCAR-4 ovarian
M19-MEL melanoma = tested on: M19-MEL melanoma
RXF 393 renal = tested on: RXF 393 renal
UACC-257 melanoma = tested on: UACC-257 melanoma
RPMI-8226 leukemia = tested on: RPMI-8226 leukemia
HCC-2998 colon = tested on: HCC-2998 colon
SR leukemia = tested on: SR leukemia
ACHN renal = tested on: ACHN renal
A549 NSCLC = tested on: A549 NSCLC
OVCAR-8 ovarian = tested on: OVCAR-8 ovarian
MOLT-4 leukemia = tested on: MOLT-4 leukemia
RXF-631 renal = tested on: RXF-631 renal
EKVX NSCLC = tested on: EKVX NSCLC
SN12C renal = tested on: SN12C renal
SW-620 colon = tested on: SW-620 colon
SK-MEL-28 melanoma = tested on: SK-MEL-28 melanoma
MALME-3M melanoma = tested on: MALME-3M melanoma
TK-10 renal = tested on: TK-10 renal
DMS 114 small cell lung = tested on: DMS 114 small cell lung
NCI-H226 lung = tested on: NCI-H226 lung
SNB-78 CNS = tested on: SNB-78 CNS
KM12 colon = tested on: KM12 colon
NCI-H522 lung = tested on: NCI-H522 lung
OVCAR-5 ovarian = tested on: OVCAR-5 ovarian
HOP-92 NSCLC = tested on: HOP-92 NSCLC
CAKI-1 renal = tested on: CAKI-1 renal

With `Cc1cc(=O)oc2cc(OCCCOc3ccc4c(C)cc(=O)oc4c3)ccc12` the TGI (OVCAR-3 ovarian) was > 100 µM, the TGI (SNB-75 CNS) was > 100 µM and the TGI (KM20L2 colon) was > 100 µM. The TGI (COLO 205 colon) was > 100 µM, the TGI (CCRF-CEM leukemia) was > 100 µM and the TGI (HCT-15 colon) was > 100 µM. For the same molecule, the TGI (SK-MEL-2 melanoma) was > 100 µM, the TGI (SNB-19 CNS) was > 100 µM and the TGI (HL-60(TB) leukemia) was > 100 µM. For the same molecule, the TGI (786-0 renal) was > 100 µM, the TGI (LXFL 529 NSCLC) was > 100 µM and the TGI (HOP-62 NSCLC) was > 100 µM. For the same molecule, the TGI (A498 renal) was > 100 µM, the TGI (SK-MEL-5 melanoma) was > 100 µM and the TGI (K-562 leukemia) was > 100 µM. The TGI (SF-295 CNS) was > 100 µM, the TGI (SF-539 CNS) was > 100 µM and the TGI (XF 498 CNS) was > 100 µM. For the same molecule, the TGI (LOX IMVI melanoma) was > 100 µM, the TGI (HT29 colon) was > 100 µM and the TGI (M14 melanoma) was > 100 µM. For the same molecule, the TGI (DLD-1 colon) was > 100 µM, the TGI (DMS 273 small cell lung) was > 100 µM and the TGI (UACC-62 melanoma) was > 100 µM. For the same molecule, the TGI (IGROV1 ovarian) was > 100 µM, the TGI (HCT-116 colon) was > 100 µM and the TGI (NCI-H460 lung) was > 100 µM. For the same molecule, the TGI (SF-268 CNS) was > 100 µM, the TGI (UO-31 renal) was > 100 µM and the TGI (U251 CNS) was > 100 µM. For the same molecule, the TGI (NCI-H23 lung) was > 100 µM, the TGI (OVCAR-4 ovarian) was > 100 µM and the TGI (M19-MEL melanoma) was > 100 µM. The TGI (RXF 393 renal) was > 100 µM, the TGI (UACC-257 melanoma) was > 100 µM and the TGI (RPMI-8226 leukemia) was > 100 µM. For the same molecule, the TGI (HCC-2998 colon) was > 100 µM, the TGI (SR leukemia) was > 100 µM and the TGI (ACHN renal) was > 100 µM. The TGI (A549 NSCLC) was > 100 µM, the TGI (OVCAR-8 ovarian) was > 100 µM and the TGI (MOLT-4 leukemia) was > 100 µM. For the same molecule, the TGI (RXF-631 renal) was > 100 µM, the TGI (EKVX NSCLC) was > 100 µM and the TGI (SN12C renal) was > 100 µM. For the same molecule, the TGI (SW-620 colon) was > 100 µM, the TGI (SK-MEL-28 melanoma) was > 100 µM and the TGI (MALME-3M melanoma) was > 100 µM. The TGI (TK-10 renal) was > 100 µM, the TGI (DMS 114 small cell lung) was > 100 µM and the TGI (NCI-H226 lung) was > 100 µM.

`O=C(NC(=Nc1ccccc1)SCSC(=Nc1ccccc1)NC(=O)c1ccco1)c1ccco1` was tested, and the TGI (OVCAR-3 ovarian) was > 100 µM, the TGI (SNB-75 CNS) was 35.1 µM and the TGI (KM20L2 colon) was > 100 µM. For the same molecule, the TGI (COLO 205 colon) was > 100 µM, the TGI (CCRF-CEM leukemia) was > 100 µM and the TGI (HCT-15 colon) was > 100 µM. The TGI (SK-MEL-2 melanoma) was > 100 µM, the TGI (SNB-78 CNS) was > 100 µM and the TGI (SNB-19 CNS) was 79.1 µM. For the same molecule, the TGI (786-0 renal) was > 100 µM, the TGI (LXFL 529 NSCLC) was > 100 µM and the TGI (HOP-62 NSCLC) was 44.9 µM. The TGI (A498 renal) was 98.2 µM, the TGI (KM12 colon) was > 100 µM and the TGI (SK-MEL-5 melanoma) was > 100 µM. The TGI (K-562 leukemia) was > 100 µM, the TGI (SF-295 CNS) was 78.4 µM and the TGI (SF-539 CNS) was 59.1 µM. The TGI (XF 498 CNS) was 66.1 µM, the TGI (LOX IMVI melanoma) was > 100 µM and the TGI (HT29 colon) was > 100 µM. For the same molecule, the TGI (M14 melanoma) was > 100 µM, the TGI (DLD-1 colon) was > 100 µM and the TGI (DMS 273 small cell lung) was > 100 µM. For the same molecule, the TGI (UACC-62 melanoma) was > 100 µM, the TGI (IGROV1 ovarian) was > 100 µM and the TGI (HCT-116 colon) was > 100 µM. For the same molecule, the TGI (NCI-H460 lung) was > 100 µM, the TGI (SF-268 CNS) was > 100 µM and the TGI (UO-31 renal) was > 100 µM. The TGI (U251 CNS) was > 100 µM, the TGI (NCI-H23 lung) was 80.6 µM and the TGI (OVCAR-4 ovarian) was > 100 µM. The TGI (M19-MEL melanoma) was > 100 µM, the TGI (RXF 393 renal) was 55 µM and the TGI (UACC-257 melanoma) was > 100 µM. The TGI (RPMI-8226 leukemia) was > 100 µM, the TGI (HCC-2998 colon) was > 100 µM and the TGI (ACHN renal) was > 100 µM. For the same molecule, the TGI (NCI-H522 lung) was 91.5 µM, the TGI (A549 NSCLC) was > 100 µM and the TGI (OVCAR-8 ovarian) was > 100 µM. The TGI (MOLT-4 leukemia) was > 100 µM, the TGI (RXF-631 renal) was > 100 µM and the TGI (OVCAR-5 ovarian) was > 100 µM. The TGI (EKVX NSCLC) was > 100 µM, the TGI (SN12C renal) was > 100 µM and the TGI (HOP-92 NSCLC) was 53.7 µM. The TGI (SW-620 colon) was > 100 µM, the TGI (SK-MEL-28 melanoma) was > 100 µM and the TGI (MALME-3M melanoma) was > 100 µM. For the same molecule, the TGI (TK-10 renal) was 70.4 µM, the TGI (DMS 114 small cell lung) was > 100 µM and the TGI (NCI-H226 lung) was > 100 µM. The TGI (CAKI-1 renal) was > 100 µM.
